{"source": "patent US20100286247A1", "about": "“Methods of Protection from Oxidative Stress” (Trustees of Boston University, priority 2005, published 2010)", "key": {"SOD2 mRNA": {"system": "SOD2 mRNA", "assay": "Northern blot analysis of antioxidant enzyme mRNA: SOD2", "type": "cell-based, human", "details": "100 μM pTT, 8-72 hours, three donors", "protocol": "Cell culture followed previously published methods.^92 Primary human newborn dermal fibroblasts were cultured from neonatal circumcised foreskin specimens. The skin samples were treated overnight in a 0.25% trypsin solution at 4° C. to separate the epidermis from the dermis. The separated dermis was then cut into pieces and plated onto etched plastic tissue culture dishes. Primary culture medium consisted of DMEM supplemented with 10% bovine CS, 50 U/ml penicillin and 50 μg/ml streptomycin sulfate. […] Secondary culture medium consisted of DMEM supplemented with 10% CS.\nPurified 5′-phosphorylated thymidine dinucleotides (pTT) (Midland Certified Reagents, Inc., Texas) purified by gel filtration and analyzed by mass spectroscopy, were obtained in lyophilized form. […] The stock solution was syringe filter-sterilized through a 0.2 μm pore filter and spectrophotometrically analyzed (absorbance at 260 and 280 nm) to determine the concentration, and frozen in aliquots at −20° C. […]\nCells were harvested in Trizol (Gibco BRL, Gaithersburg, Md.) and stored at −70° C. […] RNA solutions were measured by spectrophotometer readings at 260 nm and 280 nm to determine concentration and purity. […]\nNorthern and western films as well as stained membranes and pictures of ethidium bromide-stained gels were digitally scanned and analyzed by densitometry. […]"}, "SOD1 protein": {"system": "SOD1 protein", "assay": "Western blot analysis of antioxidant enzymes: SOD1 protein", "type": "cell-based, human", "details": "40 μM, within several hours, up to 168 hours", "protocol": "Cell lysates were harvested at various intervals after T-oligo treatment in harvest buffer containing 0.25 M Tris HCl (pH 7.5), 0.375 M NaCl, 2.5% sodium deoxycholate, 1% Triton X-100, 25 mM MgCl2, 0.1 mg/ml aprotinin (Sigma, St. Louis, Mo.) and 1 mM phenylmethyl sulfonyl flouride (PMSF) (Sigma). Samples were sheared through a fine needle syringe, sonicated, centrifuged and the supernatant was isolated. Total cellular protein concentrations were determined spectrophotometrically with the Bio-Rad protein assay (Bio-Rad Laboratories, Inc, Hercules, Calif.). Equal amounts of total protein from each sample (35-65 μg) were separated by 10-15% polyacrylamide gel electrophoresis, and transferred to nitrocellulose membranes. […]\nMembranes were reacted with antibodies diluted in Tris-based buffer with nonfat milk powder as a blocking agent. […] Antibody binding was detected with electrochemical luminescence (ECL kit, NEN Life Science Products, Inc.) and exposure to XAR film (Eastman Kodak Co.).\nThe levels of superoxide dismutase 1 (SOD1), superoxide dismutase 2 (SOD2), catalase (Cat) and glutathione peroxidase (GPX) were determined in newborn fibroblasts at different time points after treatment with 40 μM of T-oligo in comparison with cells treated either with 40 μM of control complementary oligo pCTAACCCTAAC (SEQ ID NO: 22) or diluent. […]"}, "tumor formation": {"system": "tumor formation", "details": "nude mice repeatedly exposed to solar simulated UV; cited from earlier work"}, "p21/Cip1/Waf1 protein": {"system": "p21/Cip1/Waf1 protein", "assay": "Western blot of p21/Cip1/Waf1", "type": "cell-based, human", "details": "by 36-48 hours, sustained through 72 hours; 40 μM TO, 100 μM pTT", "protocol": "Western blot analysis of proteins from cells treated and harvested in parallel with DCF time course studies was conducted as described above. Membranes were reacted with antibodies to total p53/DO-1 (1:1000 dilution, Oncogene Research Products, Cambridge, Mass.), anti-phoso-p53 (Ser-15) (1:1000 dilution, Cell Signaling Technology, Beverly, Mass.), and p21/Cip1/Waf1 (1:500 dilution, Transduction Laboratories, Lexington, Ky.), followed by appropriate secondary antibodies diluted 1:2000."}, "melanoma tumors": {"system": "melanoma tumors", "details": "SCID mouse model; cited from earlier work"}}, "note": "{P} = phosphate"}
{"substance": "5′-phosphorylated thymidine dinucleotides [pTT]", "values": [{"measurement": "SOD2 mRNA level compared to diluent", "setting": "SOD2 mRNA", "value": "no difference between pTT- and diluent-treated cells"}]}
{"substance": "pGTTAGGGTTAG (5' {P}, sugars by position and backbone not given here) [TO]", "values": [{"measurement": "SOD1 protein level", "setting": "SOD1 protein", "value": "induced"}, {"measurement": "incidence of tumor formation", "setting": "tumor formation", "value": "decreased the incidence of tumor formation"}, {"measurement": "p21 protein response, TO vs pTT", "setting": "p21/Cip1/Waf1 protein", "value": "greater than to pTT"}, {"measurement": "melanoma tumors", "setting": "melanoma tumors", "value": "reduced melanoma tumors"}]}
